{"source": "paper PMC7590008", "about": "“Slow Dissolution Kinetics of Model Peptide Fibrils” (International Journal of Molecular Sciences, 2020)", "origin": "cited, not measured here", "conditions": "can be considered a strong acid", "text": "First of all, for c<cs , the pH ≈6.3 is essentially the same as that of pure water (with some dissolved CO 2 ). This means that the A 8 K is a neutral salt and not a net acid or base. This implies that we can write the compound as PH ^+ TFA ^− , where P stands for the A 8 K peptide. The dry compound is a TFA salt, but with only one TFA counterion, because the carboxyl group is neutralized by one of the two ammonium groups ...", "note": "Counter-ions that a name gives are not always drawn."}
{"smiles": "O=C(O)C(F)(F)F", "note": "[TFA, Trifluoroacetate]", "values": [{"measurement": "pK a", "result": "≈ 1"}]}
